Patent US8461160B2, “Dihydropyrimidinones” (Hoffmann-La Roche, Inc., priority 2009, dated 2013)

Molecular target: T1, BACE2 (Homo sapiens, UniProt Q9Y5Z0)
T1 construct: BACE2 enzyme ectodomain (derived from plasmid “pET17b-T7-hu proBACE2”) was prepared as described in Ostermann et al; T7 tag (N); made in house
T1 sequence (Q9Y5Z0 21-473 limits assumed): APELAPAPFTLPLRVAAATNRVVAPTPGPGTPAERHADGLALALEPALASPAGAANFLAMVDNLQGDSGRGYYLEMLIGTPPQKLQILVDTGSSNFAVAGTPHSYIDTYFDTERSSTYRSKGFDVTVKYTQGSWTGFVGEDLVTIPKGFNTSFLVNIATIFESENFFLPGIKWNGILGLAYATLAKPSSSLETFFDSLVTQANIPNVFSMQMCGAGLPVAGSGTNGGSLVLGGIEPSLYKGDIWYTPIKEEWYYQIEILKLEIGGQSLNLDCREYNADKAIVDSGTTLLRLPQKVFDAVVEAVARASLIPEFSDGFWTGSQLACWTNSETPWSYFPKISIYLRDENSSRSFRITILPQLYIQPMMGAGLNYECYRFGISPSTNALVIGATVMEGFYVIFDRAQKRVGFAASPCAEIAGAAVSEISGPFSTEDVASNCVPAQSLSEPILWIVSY
Experiment: Fluorescent-peptide cleavage assay for BACE2 inhibition
Format: biochemical
Details: BACE2 enzyme ectodomain, fluorescent peptide WS EVNLD AEFRC-MR121, assay buffer pH 4.5, room temperature
Method: Fluorescent-Peptide Cleavage Assay for BACE2 Inhibition
The pro-enzyme was stored at 4° C. at a concentration of 70 μg/ml.
A fluorescent peptide with the amino acid sequence WS EVNLD AEFRC-MR121 was synthesised and a stock solution of 1.5 mM in DMSO prepared and stored at −20° C. MR121 is a fluorophore with an excitation wavelength of 630 nm and emission wavelength of 695 nm. The MR121 fluorescence is quenched by the N-terminal tryptophan until the peptide is cleaved by BACE2.
Assays were all made in a Corning 384-well black polystyrene non-binding surface microtitre plate with clear flat bottom and using a Plate:Vision (Perkin Elmer) fluorescence reader. To perform the assay an 80 nM solution of BACE2 was prepared in assay buffer (assay buffer is 100 mM Na-acetate; 20 mM EDTA; 0.05% BSA; pH 4.5) and incubated at room temperature for 1 hour to activate the enzyme. 39 μl of the activated BACE2 was placed in each assay well, followed by 1 μl compound to be tested at an appropriate concentration in 100% DMSO. The plate was then mixed and incubated for 10 minutes at room temperature.
The assay readout is the rate of change of fluorescence intensity giving a relative measure of BACE2 activity. Small values correspond to high inhibition and larger values to low inhibition. […] IC50 values were determined using these assay values generated for a range of inhibitor concentrations and the curve fitting software XLfit (IDBS) using the Sigmoidal Dose-Response Model.

Row | IC50 [nM] | SMILES
1 | 17 | CN1C(=O)C(C)(C)[C@@](C)(c2cc(NC(=O)c3ccn(C(F)F)n3)ccc2F)N=C1N [Example 121, 1-Difluoromethyl-1H-pyrazole-3-carboxylic acid [3-((S)-2-amino-1,4,5,5-tetramethyl-6-oxo-1,4,5,6-tetrahydro-pyrimidin-4-yl)-4-fluoro-phenyl]amide]
2 | 20 | CN1C(=O)C(C)(C)[C@@](C)(c2cccc(NC(=O)c3ccc(Cl)cn3)c2)N=C1N [Example 94, 5-Chloro-pyridine-2-carboxylic acid [3-((R)-2-amino-1,4,5,5-tetramethyl-6-oxo-1,4,5,6-tetrahydro-pyrimidin-4-yl)-phenyl]amide]
3 | 1700 | CN1C(=O)C[C@@](C)(c2cccc(NC(=O)c3ccc4sccc4n3)c2)N=C1N [Example 59, Thieno[3,2-b]pyridine-5-carboxylic acid [3-((S)-2-amino-1,4-dimethyl-6-oxo-1,4,5,6-tetrahydro-pyrimidin-4-yl)-phenyl]-amide]
4 | 300 | CN1C(=O)C[C@@](C)(c2cccc(NC(=O)c3ccc(-n4ccc(C(F)(F)F)n4)cn3)c2)N=C1N [Example 76, 5-(3-Trifluoromethyl-pyrazol-1-yl)-pyridine-2-carboxylic acid [3-((S)-2-amino-1,4-dimethyl-6-oxo-1,4,5,6-tetrahydro-pyrimidin-4-yl)-phenyl]-amide]
5 | 48 | CN1C(=O)C[C@@](C)(c2cccc(NC(=O)c3cc(Cl)ccn3)c2)N=C1N [Example 29, 4-Chloro-pyridine-2-carboxylic acid [3-((S)-2-amino-1,4-dimethyl-6-oxo-1,4,5,6-tetrahydro-pyrimidin-4-yl)-phenyl]-amide]
6 | 350 | CN1C(=O)C(O)[C@@](C)(c2cc(NC(=O)c3ccccn3)ccc2F)N=C1N (stereo partly drawn) [Example 123, Pyridine-2-carboxylic acid [3-((R)-2-amino-5-hydroxy-1,4-dimethyl-6-oxo-1,4,5,6-tetrahydro-pyrimidin-4-yl)-4-fluoro-phenyl]amide]
7 | 458 | CN1C(=O)C[C@@](C)(c2cccc(NC(=O)c3ccc(CO)cn3)c2)N=C1N [Example 16, 5-Hydroxymethyl-pyridine-2-carboxylic acid [3-((S)-2-amino-1,4-dimethyl-6-oxo-1,4,5,6-tetrahydro-pyrimidin-4-yl)-phenyl]amide]
8 | 1670 | CN1C(=O)C[C@]2(CCc3ccc(NC(=O)c4ccccn4)cc32)N=C1N [Example 128, N-[(1S)-2′-amino-1′-methyl-6′-oxo-2,3,5′,6′-tetrahydro-1′H-spiro[indene-1,4′-pyrimidin]-6-yl]pyridine-2-carboxamide]
9 | 9 | Cc1nc(C(=O)Nc2cccc([C@]3(C)CC(=O)N(C)C(N)=N3)c2)co1 [Example 38, 2-Methyl-oxazole-4-carboxylic acid [3-((S)-2-amino-1,4-dimethyl-6-oxo-1,4,5,6-tetrahydro-pyrimidin-4-yl)-phenyl]-amide]
10 | 18 | CN1C(=O)C[C@@](C)(c2cccc(NC(=O)c3ncccc3Cl)c2)N=C1N [Example 28, 3-Chloro-pyridine-2-carboxylic acid [3-((S)-2-amino-1,4-dimethyl-6-oxo-1,4,5,6-tetrahydro-pyrimidin-4-yl)-phenyl]amide]
11 | 307 | Cc1cc(C(=O)Nc2cccc([C@]3(C)CC(=O)N(C)C(N)=N3)c2)on1 [Example 6, 3-Methyl-isoxazole-5-carboxylic acid [3-((S)-2-amino-1,4-dimethyl-6-oxo-1,4,5,6-tetrahydro-pyrimidin-4-yl)-phenyl]amide]
12 | 2100 | CN1C(=O)C[C@@](C)(c2cccc(NC(=O)c3ccccc3-c3ncc[nH]3)c2)N=C1N [Example 80, N-[3-((S)-2-Amino-1,4-dimethyl-6-oxo-1,4,5,6-tetrahydro-pyrimidin-4-yl)-phenyl]-2-(1H-imidazol-2-yl)-benzamide]
13 | 310 | CN1C(=O)C[C@@](C)(c2ccc(F)c(NC(=O)c3ccc(Cl)cn3)c2)N=C1N [Example 125, 5-Chloro-pyridine-2-carboxylic acid [5-((S)-2-amino-1,4-dimethyl-6-oxo-1,4,5,6-tetrahydro-pyrimidin-4-yl)-2-fluoro-phenyl]amide]
14 | 6420 | Cc1ncc(C(=O)Nc2cccc([C@]3(C)CC(=O)N(C)C(N)=N3)c2)cn1 [Example 35, 2-Methyl-pyrimidine-5-carboxylic acid [3-((S)-2-amino-1,4-dimethyl-6-oxo-1,4,5,6-tetrahydro-pyrimidin-4-yl)-phenyl]-amide]
15 | 21 | COc1ccc(C(=O)Nc2ccc(F)c([C@@]3(C)N=C(N)N(C)C(=O)C3(C)C)c2)nc1 [Example 113, 5-Methoxy-pyridine-2-carboxylic acid [3-((S)-2-amino-1,4,5,5-tetramethyl-6-oxo-1,4,5,6-tetrahydro-pyrimidin-4-yl)-4-fluoro-phenyl]amide]
16 | 28 | CN1C(=O)C(C)(C)[C@@](C)(c2cc(NC(=O)c3ncc(Cl)cn3)ccc2F)N=C1N [Example 106, 5-Chloro-pyrimidine-2-carboxylic acid [3-((S)-2-amino-1,4,5,5-tetramethyl-6-oxo-1,4,5,6-tetrahydro-pyrimidin-4-yl)-4-fluoro-phenyl]amide]
17 | 1520 | CN1C(=O)C[C@@](C)(c2cccc(NC(=O)c3nc(Cl)ccc3C(F)(F)F)c2)N=C1N [Example 72, 6-Chloro-3-trifluoromethyl-pyridine-2-carboxylic acid [3-((S)-2-amino-1,4-dimethyl-6-oxo-1,4,5,6-tetrahydro-pyrimidin-4-yl)-phenyl]-amide]
18 | 9 | CN1C(=N)N[C@](C)(c2cc(NC(=O)c3ccc(C(F)(F)F)cn3)ccc2F)CC1=O [Example 48, 5-Trifluoromethyl-pyridine-2-carboxylic acid [3-((S)-2-amino-1,4-dimethyl-6-oxo-1,4,5,6-tetrahydro-pyrimidin-4-yl)-4-fluoro-phenyl]amide]
19 | 121 | Cc1nc(C)c(C(=O)Nc2cccc([C@]3(C)CC(=O)N(C)C(N)=N3)c2)o1 [Example 5, 2,4-Dimethyl-oxazole-5-carboxylic acid [3-((S)-2-amino-1,4-dimethyl-6-oxo-1,4,5,6-tetrahydro-pyrimidin-4-yl)-phenyl]amide]
20 | 37 | Cc1ccc(C(=O)Nc2cccc([C@]3(C)CC(=O)N(C)C(N)=N3)c2)nc1 [Example 12, 5-Methyl-pyridine-2-carboxylic acid [3-((S)-2-amino-1,4-dimethyl-6-oxo-1,4,5,6-tetrahydro-pyrimidin-4-yl)-phenyl]amide]
21 | 36 | CN1C(=O)C(C)(C)[C@@](C)(c2cc(NC(=O)c3ccc(Cl)cn3)ccc2Cl)N=C1N [Example 126, 5-Chloro-pyridine-2-carboxylic acid [3-((S)-2-amino-1,4,5,5-tetramethyl-6-oxo-1,4,5,6-tetrahydro-pyrimidin-4-yl)-4-chloro-phenyl]amide]
22 | 9 | CN1C(=O)C[C@@](C)(c2cccc(NC(=O)c3ccccn3)c2)N=C1N [Example 13, Pyridine-2-carboxylic acid [3-((S)-2-amino-1,4-dimethyl-6-oxo-1,4,5,6-tetrahydro-pyrimidin-4-yl)-phenyl]-amide]
23 | 28 | CN1C(=O)C[C@@](C)(c2cccc(NC(=O)c3ccc(C(F)(F)F)cn3)c2)N=C1N [Example 11, 5-Trifluoromethyl-pyridine-2-carboxylic acid [3-((S)-2-amino-1,4-dimethyl-6-oxo-1,4,5,6-tetrahydro-pyrimidin-4-yl)-phenyl]amide]
24 | 1580 | Cc1nn(C)cc1C(=O)Nc1cccc([C@]2(C)CC(=O)N(C)C(N)=N2)c1 [Example 77, 1,3-Dimethyl-1H-pyrazole-4-carboxylic acid [3-((S)-2-amino-1,4-dimethyl-6-oxo-1,4,5,6-tetrahydro-pyrimidin-4-yl)-phenyl]-amide]
25 | 20 | CN1C(=O)C(C)(C)[C@@](C)(c2cc(NC(=O)c3ccc(C(F)(F)F)cn3)ccc2F)N=C1N [Example 110, 5-Trifluoromethyl-pyridine-2-carboxylic acid [3-((S)-2-amino-1,4,5,5-tetramethyl-6-oxo-1,4,5,6-tetrahydro-pyrimidin-4-yl)-4-fluoro-phenyl]amide]
26 | 24 | CC[C@H]1C(=O)N(C)C(N)=N[C@]1(C)c1cccc(NC(=O)c2ccc(Cl)cn2)c1 [Example 92, 5-Chloro-pyridine-2-carboxylic acid [3-((4S,5R)-2-amino-5-ethyl-1,4-dimethyl-6-oxo-1,4,5,6-tetrahydro-pyrimidin-4-yl)-phenyl]-amide]
